According to ChEMBL document CHEMBL5230136, “A review: Biologically active 3,4-heterocycle-fused coumarins” (Eur J Med Chem, 2021):

What was measured:
[1] = target: Dopamine receptors; D2 & D4 (Homo sapiens, UniProt P14416+P21917); assay: Binding affinity to human D2/D4 receptor assessed as inhibition constant; assay type: protein assay
[2] = test system: Botrytis cinerea; assay: Antifungal activity against gray mold Botrytis cinerea assessed as reduction in fungal growth; assay type: functional; set-up: concentration or dose not given beside the values
[3] = test system: Erysiphe necator; assay: Antifungal activity against powdery mildew Erysiphe necator assessed as reduction in fungal growth; assay type: functional; set-up: concentration or dose not given beside the values
[4] = test system: Rhizoctonia solani; assay: Antifungal activity against Rhizoctonia solani assessed as reduction in fungal growth; assay type: functional; set-up: concentration or dose not given beside the values
[5] = test system: Xanthomonas citri pv. malvacearum; assay: Antibacterial activity against Xanthomonas citri pv. malvacearum assessed as reduction in bacterial growth; assay type: functional; set-up: concentration or dose not given beside the values
[6] = test system: Phytophthora; assay: Antimicrobial activity against Phytophthora assessed as reduction in microbial growth; assay type: functional; set-up: concentration or dose not given beside the values
[7] = test system: Fusarium verticillioides; assay: Antifungal activity against Fusarium verticillioides assessed as reduction in fungal growth; assay type: functional; set-up: concentration or dose not given beside the values
[8] = test system: Ehrlich; assay: cells; settings: Mus musculus
Description: Anticancer activity against mouse EAC cells assessed as reduction in cell viability

[9] = test system: Staphylococcus aureus; assay: Antibacterial activity against Staphylococcus aureus assessed as zone of inhibition; assay type: functional
[10] = test system: Penicillium chrysogenum; assay: Antifungal activity against Penicillium chrysogenum assessed as zone of inhibition; assay type: functional
[11] = test system: Serratia marcescens; assay: Antibacterial activity against Serratia marcescens assessed as zone of inhibition; assay type: functional
[12] = test system: Aspergillus ochraceus; assay: Antifungal activity against Aspergillus ochraceus assessed as zone of inhibition; assay type: functional
[13] = test system: Bacillus cereus; assay: Antibacterial activity against Bacillus cereus assessed as zone of inhibition; assay type: functional
[14] = test system: Proteus mirabilis; assay: Antibacterial activity against Proteus mirabilis assessed as zone of inhibition; assay type: functional

COc1ccc2c3c(c(=O)oc2c1)CN(CCc1ccccc1)CC3
Ki [1]: 734 nM

CN1C(c2ccccc2)Cc2c(c(=O)oc3c2ccc2ccccc23)C1c1ccccc1 (stereo unspecified)
Activity [2]: 0% | Activity [3]: 8% | Activity [4]: 0% | Activity [5]: 9% | Activity [6]: 0% | Activity [7]: 14%

CC(=O)N1C(c2ccccc2)Cc2c(c(=O)oc3cc(C)ccc23)C1c1ccccc1 (stereo unspecified)
Activity [2]: 11% | Activity [3]: 52% | Activity [4]: 0% | Activity [5]: 18% | Activity [6]: 83% | Activity [7]: 10%

O=c1oc2ccccc2c2nc3c(c(-c4ccccc4)c12)CCC/C3=C\c1ccccc1
IC50 [8]: 130 nM

CC1c2c(c3ccccc3oc2=O)Oc2ncn3nc(-c4ccccc4)nc3c21 (stereo unspecified)
inhibition zone (IZ) [9]: 20 mm | inhibition zone (IZ) [10]: 17 mm | inhibition zone (IZ) [11]: 20 mm | inhibition zone (IZ) [12]: 19 mm | inhibition zone (IZ) [13]: 22 mm | inhibition zone (IZ) [14]: 19 mm

COc1ccc2c3c(c(=O)oc2c1)CN(Cc1ccc(F)cc1)CC3
Ki [1]: 1350 nM

CC1(C)S[C@@H]2[C@H](NC(=O)[C@H](N)c3ccccc3)C(=O)N2[C@H]1C(=O)O [AMPICILLIN]
inhibition zone (IZ) [9]: 26 mm | inhibition zone (IZ) [11]: 26 mm | inhibition zone (IZ) [13]: 25 mm | inhibition zone (IZ) [14]: 27 mm

CC(=O)N1C(c2ccccc2)Cc2c(c(=O)oc3c2ccc2ccccc23)C1c1ccccc1 (stereo unspecified)
Activity [2]: 21% | Activity [3]: 0% | Activity [4]: 2% | Activity [5]: 9% | Activity [6]: 0% | Activity [7]: 6%

COc1ccc(CN2CCc3c(c(=O)oc4cc(OC)ccc34)C2)cc1
Ki [1]: 69 nM

O=c1oc2ccccc2c2c1C(c1ccc(Cl)cc1)c1c(ncn3nc(CCl)nc13)O2 (stereo unspecified)
inhibition zone (IZ) [9]: 23 mm | inhibition zone (IZ) [10]: 19 mm | inhibition zone (IZ) [11]: 23 mm | inhibition zone (IZ) [12]: 19 mm | inhibition zone (IZ) [13]: 22 mm | inhibition zone (IZ) [14]: 22 mm

CC1c2c(c3ccccc3oc2=O)Oc2ncn3nc(CCl)nc3c21 (stereo unspecified)
inhibition zone (IZ) [9]: 20 mm | inhibition zone (IZ) [10]: 19 mm | inhibition zone (IZ) [11]: 21 mm | inhibition zone (IZ) [12]: 18 mm | inhibition zone (IZ) [13]: 22 mm | inhibition zone (IZ) [14]: 20 mm

O=C1c2ccccc2-c2nc3c(c(-c4ccccc4)c21)c(=O)oc1ccccc13
IC50 [8]: 130 nM

O=c1oc2ccccc2c2nc(-c3ccccc3)cc(-c3ccc([N+](=O)[O-])cc3)c12
IC50 [8]: 120 nM

COc1ccc2c3c(c(=O)oc2c1)CN(Cc1ccccc1Cl)CC3
Ki [1]: 171 nM

CC1C(C#N)=C(N)Oc2c1c(=O)oc1ccccc21 (stereo unspecified)
inhibition zone (IZ) [9]: 18 mm | inhibition zone (IZ) [10]: 18 mm | inhibition zone (IZ) [11]: 18 mm | inhibition zone (IZ) [12]: 16 mm | inhibition zone (IZ) [13]: 19 mm | inhibition zone (IZ) [14]: 20 mm

O=c1[nH]cc(F)c(=O)[nH]1 [FLUOROURACIL]
IC50 [8]: 380 nM

CCc1cccc(-n2c(N)c(C#N)c3c(c(=O)oc4ccc5ccccc5c43)c2=O)c1
IC50 [8]: 246000 nM

COc1ccc2c3c(c(=O)oc2c1)CN(Cc1ccc(Cl)cc1)CC3
Ki [1]: 667 nM

CC1C2=C(N=CNC2N)Oc2c1c(=O)oc1ccccc21 (stereo unspecified)
inhibition zone (IZ) [9]: 21 mm | inhibition zone (IZ) [10]: 12 mm | inhibition zone (IZ) [11]: 20 mm | inhibition zone (IZ) [12]: 14 mm | inhibition zone (IZ) [13]: 22 mm | inhibition zone (IZ) [14]: 19 mm

Cc1ccc2c3c(c(=O)oc2c1)CN(Cc1ccc(F)cc1)CC3
Ki [1]: 773 nM

O=c1oc2ccccc2c2nc(/C=C/c3ccccc3)cc(-c3ccccc3)c12
IC50 [8]: 120 nM

COc1ccc2c3c(c(=O)oc2c1)CN(Cc1ccc(Cl)c(Cl)c1)CC3
Ki [1]: 95 nM

CC1c2c(c3ccccc3oc2=O)Oc2ncn(C)c(=N)c21 (stereo unspecified)
inhibition zone (IZ) [9]: 18 mm | inhibition zone (IZ) [10]: 15 mm | inhibition zone (IZ) [11]: 19 mm | inhibition zone (IZ) [12]: 19 mm | inhibition zone (IZ) [13]: 17 mm | inhibition zone (IZ) [14]: 19 mm
